Patent US20200239530A1, “COMPOUNDS AND METHODS OF MODULATING PROTEIN DEGRADATION” (Vividion Therapeutics, Inc., priority 2017, published 2020)

Target: T1, ZNF644 Zinc finger protein 644 (Homo sapiens, UniProt Q9H582)
T1 construct: Cells were resuspended in cold PBS on ice and sonicated with a probe sonicator to achieve lysis; endogenous in cells
T1 sequence (Q9H582 1-1327): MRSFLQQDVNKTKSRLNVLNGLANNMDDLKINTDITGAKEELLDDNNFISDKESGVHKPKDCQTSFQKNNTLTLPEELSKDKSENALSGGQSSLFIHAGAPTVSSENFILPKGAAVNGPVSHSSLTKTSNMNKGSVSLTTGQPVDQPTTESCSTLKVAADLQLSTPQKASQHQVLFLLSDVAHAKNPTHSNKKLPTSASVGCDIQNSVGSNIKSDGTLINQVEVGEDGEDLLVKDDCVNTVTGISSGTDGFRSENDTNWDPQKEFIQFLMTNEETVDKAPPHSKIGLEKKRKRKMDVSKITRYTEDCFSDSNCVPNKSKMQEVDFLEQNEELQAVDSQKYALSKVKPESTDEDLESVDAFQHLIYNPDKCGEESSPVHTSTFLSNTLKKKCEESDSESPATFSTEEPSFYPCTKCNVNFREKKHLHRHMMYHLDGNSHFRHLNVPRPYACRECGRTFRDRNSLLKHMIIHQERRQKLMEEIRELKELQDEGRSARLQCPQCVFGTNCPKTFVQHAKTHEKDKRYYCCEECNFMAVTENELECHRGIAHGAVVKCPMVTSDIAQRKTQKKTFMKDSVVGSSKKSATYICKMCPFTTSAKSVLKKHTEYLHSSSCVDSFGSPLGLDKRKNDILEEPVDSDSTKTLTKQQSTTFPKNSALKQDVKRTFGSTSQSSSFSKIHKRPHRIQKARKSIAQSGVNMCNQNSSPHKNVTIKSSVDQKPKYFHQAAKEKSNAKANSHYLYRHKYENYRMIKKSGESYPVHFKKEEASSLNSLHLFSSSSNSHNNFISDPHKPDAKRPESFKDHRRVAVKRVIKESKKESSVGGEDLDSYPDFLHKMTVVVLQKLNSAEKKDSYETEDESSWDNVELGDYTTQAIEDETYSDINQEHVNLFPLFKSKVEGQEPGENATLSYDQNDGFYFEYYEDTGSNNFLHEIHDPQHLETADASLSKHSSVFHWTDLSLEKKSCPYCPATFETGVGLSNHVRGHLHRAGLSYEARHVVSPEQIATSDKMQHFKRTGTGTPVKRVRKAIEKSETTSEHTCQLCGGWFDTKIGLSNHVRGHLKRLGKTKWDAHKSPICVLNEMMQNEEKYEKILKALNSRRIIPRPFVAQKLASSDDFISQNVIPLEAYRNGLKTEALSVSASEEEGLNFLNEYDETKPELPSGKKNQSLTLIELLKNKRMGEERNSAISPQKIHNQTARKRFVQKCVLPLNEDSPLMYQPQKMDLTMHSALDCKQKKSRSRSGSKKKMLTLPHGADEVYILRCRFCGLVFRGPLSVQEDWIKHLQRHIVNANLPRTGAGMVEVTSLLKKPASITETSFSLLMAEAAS
Experiment: Cysteine liganding, probe competition
Format: binding
In short: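 Probe competition in native proteome: 5 mg/ml lysate, compound 1 hr 25° C, then desthiobiotin iodoacetamide (10 mM stock) 1 hr 25° C; acetone ppt, urea/DTT reduction, iodoacetamide alkylation, trypsin, streptavidin pull-down.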

Compound | Liganded (ZNF644 Res# 507, uniprot Q9H582) | 100 Max (uniprot Q9H582) | 100 ave (uniprot Q9H582) | 500 ave (uniprot Q9H582) | 500 Max (uniprot Q9H582, in % (unit assumed))
COc1ccc2c(c1)CCCN2C(=O)CCl [KB02] | YES |  |  |  | 
O=C(CCl)Nc1cc(C(F)(F)F)cc(C(F)(F)F)c1 [KBO3] |  | 24.53 | 11.2825 | 67.685 | 72.77
